≈ marks a conversion by molar mass, not a printed value.
Key:
[1] = test system: Mycobacterium tuberculosis; assay: Antimycobacterial activity against Mycobacterium tuberculosis H37Rv; format: functional; details: Mycobacterium tuberculosis, H37Rv; read-out: MIC
Vero = assay: Cytotoxicity against african green monkey Vero cells; format: cell-based; details: Chlorocebus sabaeus
[2] = Selectivity index, ratio of IC50 for african green monkey Vero cells to MIC for Mycobacterium tuberculosis H37Rv; format: functional
[3] = Inhibition of Mycobacterium tuberculosis RNA polymerase
[4] = test system: Mycobacterium tuberculosis; assay: Antimycobacterial activity against Mycobacterium tuberculosis H37Ra; format: functional
[5] = Selectivity index, ratio of IC50 for african green monkey Vero cells to MIC for Mycobacterium tuberculosis H37Ra; format: functional
[6] = test system: Mycobacterium tuberculosis; assay: Antimycobacterial activity against Mycobacterium tuberculosis isolate no. 246; format: functional
[7] = molecular target: T1, 3-oxoacyl-[acyl-carrier-protein] synthase 1 (Mycobacterium tuberculosis, UniProt P9WQD9); assay: Inhibition of Mycobacterium tuberculosis H37Rv Fab1
T1 sequence (P9WQD9 whole entry): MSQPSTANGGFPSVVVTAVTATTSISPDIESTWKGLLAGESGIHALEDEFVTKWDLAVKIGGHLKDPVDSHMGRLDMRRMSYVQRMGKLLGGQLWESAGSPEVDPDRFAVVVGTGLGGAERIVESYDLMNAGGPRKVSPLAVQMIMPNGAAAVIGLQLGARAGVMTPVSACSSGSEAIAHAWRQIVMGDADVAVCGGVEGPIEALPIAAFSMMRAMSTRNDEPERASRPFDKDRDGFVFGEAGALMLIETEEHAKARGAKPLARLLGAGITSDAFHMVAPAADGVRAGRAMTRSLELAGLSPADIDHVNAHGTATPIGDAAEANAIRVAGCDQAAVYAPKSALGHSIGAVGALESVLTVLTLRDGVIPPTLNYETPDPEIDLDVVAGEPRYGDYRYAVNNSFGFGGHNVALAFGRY

[8] = test system: Mycobacterium tuberculosis; assay: Growth inhibition of Mycobacterium tuberculosis H37Rv at 6.25 ug/ml; format: functional; details: read-out: GI
[9] = test system: Mycobacterium tuberculosis; assay: Antimycobacterial activity against Mycobacterium tuberculosis at 128 ug/mL; format: functional; details: read-out: GI
[10] = test system: Mycobacterium tuberculosis; assay: Antimycobacterial activity against Mycobacterium tuberculosis 90-221387; format: functional
[11] = test system: Mycobacterium tuberculosis; assay: Antimycobacterial activity against Mycobacterium tuberculosis H37Rv under aerobic condition; format: functional
[12] = test system: Mycobacterium tuberculosis; assay: Antimycobacterial activity against Mycobacterium tuberculosis H37Rv under anaerobic condition; format: functional
[13] = test system: Mycobacterium tuberculosis; assay: Antimycobacterial activity against Mycobacterium tuberculosis H37Rv isolate WC 64/02; format: functional
[14] = test system: Mycobacterium tuberculosis; assay: Antimycobacterial activity against Mycobacterium tuberculosis H37Rv isolate WC 51/02; format: functional
[15] = Selectivity index, ratio of CC50 for lymphocytes to MIC for Mycobacterium tuberculosis H37Rv isolate WC 64/02; format: functional
[16] = Selectivity index, ratio of CC50 for lymphocytes to MIC for Mycobacterium tuberculosis H37Rv isolate WC 51/02; format: functional
[17] = test system: Mycobacterium tuberculosis; assay: Antimycobacterial activity against Mycobacterium tuberculosis Erdman by microplate alamar blue assay; format: functional
[18] = test system: Mycobacterium tuberculosis; assay: Antimycobacterial activity against Mycobacterium tuberculosis H242; format: functional
[19] = test system: Mycobacterium tuberculosis; assay: Antimycobacterial activity against Mycobacterium tuberculosis H37Rv by liquid microdilution method; format: functional

## C=C(CC[C@@H](C)[C@H]1CC[C@H]2[C@@H]3C(C=O)=C4C[C@@H](O)CC[C@]4(C)[C@H]3CC[C@]12C)C(C)C [PARGUESTEROL A]
[1]
  MIC: 7.8 µg/mL
Vero
  IC50: 52 µg/mL
[2]
  Selectivity Index: <7

## C/C=C/C/C=C(\C)C(O)CC/C(C)=C/C=C(\C)C(=O)c1c(O)cc([C@H](C)CC/C=C/NC(=O)OC)oc1=O (some centres undefined) [CORALLOPYRONIN A]
[3]
  IC50: 4000 nM

## COc1ccc(C(=O)OC2=C(C(C)C)C(=O)C3=C(C2=O)[C@@]2(C)CCCC(C)(C)[C@@H]2[C@H](O)[C@H]3OC(C)=O)cc1
[1]
  MIC: 3.12 µg/mL
Vero
  IC50: 2.58 µg/mL

## COC1=CC(=O)c2c(cc(OC)c(C(C)OC(C)=O)c2O)C1=O (centres undefined)
[4]
  MIC: 0.39 µg/mL
Vero
  IC50: 0.33 µg/mL
[5]
  Selectivity Index: <1

## O=C1c2cccnc2-c2nccc3c2c1nc1ccccc13 [ASCIDIDEMIN]
[1]
  MIC: 0.35 µM
Vero
  IC50: 0.14 µM
[2]
  Selectivity Index: <1

## CCCCCC(CC(=O)N1N=CCCC1C(=O)N[C@H]1COC(=O)[C@H]2CCCNN2C(=O)[C@H](C)NC(=O)[C@@H](CC(C)C)NC1=O)C(=O)O (some centres undefined) [LYDIAMYCIN A]
[1]
  MIC: 12.5 µg/mL
[6]
  MIC: 25 µg/mL (≈ 37.7 µM)

## CCCCCCCc1cc(O)c(CCCCCC)c(=O)o1 [PSEUDOPYRONINES B]
[1]
  MIC: 0.78 µg/mL
[7]
  IC50: 3.8 µM

## C[C@@H]1CC[C@@H]2[C@@H](C)C[C@@H](C(=O)/C=C\O)[C@]2(O)C1=O [ELISABETHIN H]
[8]
  inhibition of growth at 6.25 µg/mL: 51%

## C=C(C)[C@@H]1CCC2=C[C@@H](OC2=O)C2=C(C)C[C@](O)(C2=O)[C@H](C)[C@@H](O)C1=O [CORALLOLIDE B]
[9]
  inhibition of growth at 128 µg/mL: 95%

## COc1cc([C@H]2O[C@@]3(c4cc(OC)c(OC)c(OC)c4)O[C@@]3(C)[C@@H]2C)cc(OC)c1OC
[10]
  MIC: 40 µg/mL (≈ 89.6 µM)

## COc1cc([C@H]2O[C@@H](c3cc(OC)c4c(c3)OCO4)[C@@H](C)[C@@H]2C)cc(OC)c1OC [BEILSCHMIN A]
[10]
  MIC: 2.5 µg/mL (≈ 6 µM)

## CC(C)[C@@H](C)/C=C/[C@@H](C)[C@H]1CC[C@@H]2[C@]1(C)CC[C@H]1[C@]23C=C[C@]2(C[C@@H](O)CC[C@]12C)OO3 [ERGOSTEROL PEROXIDE]
[1]
  MIC: 3.5 µM
[2]
  Selectivity Index: >57

## C=C(C)[C@H]1CC[C@@H]2C(=O)O[C@H]3[C@@H]2O[C@@]2(O[C@@H]1C(=O)[C@@]1(C)O[C@@H]21)[C@@H]3C(=C)C [BIPINNAPTEROLIDE B]
[9]
  inhibition of growth at 128 µg/mL: 66%

## CCCC/C=C/C#CC#CCCCCCCCC(=O)O [EXOCARPIC ACID]
[4]
  MIC: 20 µg/mL
[11]
  MIC: 20 µg/mL (≈ 72.9 µM)
[12]
  MIC: 87 µg/mL (≈ 317 µM)

## Cc1cc(O)cc2c1C[C@@H]1C[C@@H](O)[C@]3(C)Oc4cc(O)cc(C)c4C[C@@H]3CC(C)(C)/C=C/C[C@@]1(C)C2 [RAMIFERIN]
[4]
  MIC: 12.7 µM
Vero
  IC50: 9.7 µM
[5]
  Selectivity Index: 0.7

## C=C(CC[C@@H](C)[C@H]1CC[C@H]2[C@@H]3C(C=O)[C@]4(O)C[C@@H](O)CC[C@]4(C)[C@H]3CC[C@]12C)C(C)C (some centres undefined) [PARGUESTEROL B]
[1]
  MIC: 11.2 µg/mL
Vero
  IC50: 52 µg/mL
[2]
  Selectivity Index: <7

## Cc1cc(O)c2c(c1)C(=O)C=CC2=O [RAMENTACEONE]
[13]
  MIC: 0.5 µg/mL (≈ 2.66 µM)
[14]
  MIC: 0.5 µg/mL (≈ 2.66 µM)
[15]
  Selectivity Index: <8
[16]
  Selectivity Index: <8

## C=CC(O)C#CC#CC(O)/C=C\CCCCCCCCOC(C)=O (centres undefined)
[1]
  MIC: 25.3 µg/mL
[17]
  MIC: 1.4 µg/mL (≈ 4.21 µM)

## C=C[C@@]1(C)[C@H](Cl)C[C@@H]2C(C)(C)c3cccc4[nH]c5c(c34)[C@@]2(O)[C@]1(C#N)[C@@]1(CO1)C5(C)C [FISCHAMBIGUINE B]
[1]
  MIC: 2 µM
Vero
  IC50: 128 µM
[2]
  Selectivity Index: 64

## CC[C@@H](CO)NCCN[C@@H](CC)CO [ETHAMBUTOL]
[10]
  MIC: 6.2 µg/mL (≈ 30.3 µM)

## CCCCCCCC/C=C\CCCCCCCCCCCCCCCC[C@@H](O)C(=O)N[C@@H](CO[C@@H]1O[C@H](CO)[C@H](O)[C@H](O)[C@H]1O)[C@H](O)[C@H](O)CCC/C=C\CCCCCCCCC
[1]
  MIC: 40 µg/mL
[18]
  MIC: 40 µg/mL (≈ 44.5 µM)

## CC[C@H](C)[C@@H](NC(=O)[C@@H](CCC(=O)O)NC(=O)[C@H](Cc1cnc[nH]1)NC(=O)[C@H](CC(C)C)NC(=O)[C@H](N)Cc1ccccc1)C(=O)N[C@H]1CCCCNC1=O [CALPINACTAM]
[19]
  MIC: 12.5 µg/mL (≈ 16.3 µM)

## CCC/C(C)=C/C=C(\C)C(=O)c1c(O)cc([C@H](C)CC/C=C/NC(=O)OC)oc1=O [MYXOPORIN A]
[3]
  IC50: 1000 nM

## COc1cc([C@H]2O[C@@H](c3cc(OC)c(OC)c(OC)c3)[C@@H](C)[C@@H]2C)cc(OC)c1OC [BEILSCHMIN B]
[10]
  MIC: 7.5 µg/mL (≈ 17.3 µM)

## COc1cc([C@H]2O[C@@]3(c4cc(OC)c5c(c4)OCO5)O[C@@]3(C)[C@@H]2C)cc2c1OCO2 [BEILSCHMIN D]
[10]
  MIC: 50 µg/mL (≈ 121 µM)

## C/C(=C\Cc1ccccc1)CC[C@@]1(O)C[C@H]2C[C@@H](C/C(C)=C/C/C=C/C/C(CC(=O)O)=C\C(=O)O2)O1 [RIPOSTATIN A]
[3]
  IC50: 800 nM

— ChEMBL document CHEMBL2203104, “Recent advances in antitubercular natural products” (Eur J Med Chem, 2012)
